# Laboratory results taken from patent EP2424865B1 (Boehringer Ingelheim International GmbH, priority 2009, dated 2010).
# Read-outs that look alike come from different tables or passages of the source.
# Tests used:
# 11β-HSD1 [1] = molecular target: T1, 11β-HSD1 (Homo sapiens, UniProt P28845); assay: biochemical; settings: read-out: Average % control inhibition at 100 nM
# 11β-HSD1 [2] = molecular target: T1, 11β-HSD1
# CYP2C9 = CYP2C9 (Homo sapiens, UniProt P11712); assay: Biological Test Example 9: CYP2C9 inhibition (Invitrogen kit, fluorogenic substrate OOMR); assay type: in vitro ADME
# Sequence of CYP2C9 (P11712 whole entry): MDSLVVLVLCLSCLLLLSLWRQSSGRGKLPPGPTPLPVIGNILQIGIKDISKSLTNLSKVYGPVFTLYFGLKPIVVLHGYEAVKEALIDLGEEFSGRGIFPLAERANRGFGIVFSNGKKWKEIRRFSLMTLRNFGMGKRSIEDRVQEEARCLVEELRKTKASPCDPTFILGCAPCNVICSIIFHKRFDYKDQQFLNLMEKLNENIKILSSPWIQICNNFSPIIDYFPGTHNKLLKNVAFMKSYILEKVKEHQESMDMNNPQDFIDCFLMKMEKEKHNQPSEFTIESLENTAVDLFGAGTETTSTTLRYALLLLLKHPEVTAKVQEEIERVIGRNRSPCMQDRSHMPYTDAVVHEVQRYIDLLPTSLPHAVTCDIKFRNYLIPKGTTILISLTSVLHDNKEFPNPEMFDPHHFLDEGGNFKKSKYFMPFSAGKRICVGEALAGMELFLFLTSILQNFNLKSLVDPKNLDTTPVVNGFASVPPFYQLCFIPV
# Plasma protein = assay: Biological Test Example 5: fraction unbound in human plasma (equilibrium dialysis); assay type: in vitro ADME
# [3] = molecular target: human recombinant cytochrome P450 2C9 (Homo sapiens, UniProt P11712); assay: Biological Test Example 7: CYP2C9 inhibition ([O-methyl-14C]-Naproxen O-demethylation)
# Sequence of human recombinant cytochrome P450 2C9 (P11712 whole entry): as above
# [4] = molecular target: human recombinant cytochrome P450 3A4 (Homo sapiens, UniProt P08684)
# Sequence of human recombinant cytochrome P450 3A4 (P08684 whole entry): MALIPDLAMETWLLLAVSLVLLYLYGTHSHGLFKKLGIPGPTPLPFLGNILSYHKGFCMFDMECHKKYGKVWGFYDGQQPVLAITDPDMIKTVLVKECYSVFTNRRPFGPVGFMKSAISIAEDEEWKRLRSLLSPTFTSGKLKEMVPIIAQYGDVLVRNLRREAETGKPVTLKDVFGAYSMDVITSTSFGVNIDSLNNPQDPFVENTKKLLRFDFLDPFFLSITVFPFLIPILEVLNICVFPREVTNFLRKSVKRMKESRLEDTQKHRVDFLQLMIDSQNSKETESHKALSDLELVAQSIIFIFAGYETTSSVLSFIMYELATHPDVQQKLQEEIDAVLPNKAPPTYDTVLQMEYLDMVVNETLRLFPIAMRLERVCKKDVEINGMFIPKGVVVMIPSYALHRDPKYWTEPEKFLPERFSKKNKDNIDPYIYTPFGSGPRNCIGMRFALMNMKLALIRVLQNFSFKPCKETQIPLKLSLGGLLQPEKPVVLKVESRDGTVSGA
# [5] = molecular target: human recombinant cytochrome P450 2C19 (Homo sapiens, UniProt P33261); assay: Biological Test Example 8: CYP2C19 inhibition ([N-methyl-14C]-Diazepam N-demethylation)
# Sequence of human recombinant cytochrome P450 2C19 (P33261 whole entry): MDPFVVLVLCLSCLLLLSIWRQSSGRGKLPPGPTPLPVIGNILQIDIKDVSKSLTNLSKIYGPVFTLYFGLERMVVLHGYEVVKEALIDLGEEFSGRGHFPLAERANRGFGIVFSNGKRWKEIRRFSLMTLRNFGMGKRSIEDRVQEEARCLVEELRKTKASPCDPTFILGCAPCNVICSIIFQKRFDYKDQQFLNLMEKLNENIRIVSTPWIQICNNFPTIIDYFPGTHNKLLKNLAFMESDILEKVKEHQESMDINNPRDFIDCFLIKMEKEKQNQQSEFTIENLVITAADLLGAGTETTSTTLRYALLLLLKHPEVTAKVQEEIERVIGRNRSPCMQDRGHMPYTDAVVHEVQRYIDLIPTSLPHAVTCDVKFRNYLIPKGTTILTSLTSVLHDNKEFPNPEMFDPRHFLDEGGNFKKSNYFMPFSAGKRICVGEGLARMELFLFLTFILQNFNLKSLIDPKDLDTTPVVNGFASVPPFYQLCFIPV
# [6] = read-out: Biological Test Example 1 IC50, Examples
# [7] = read-out: Biological Test Example 1 IC50 Range, microsomal preparation of human 11β-HSD1, SPA
# [8] = Invitrogen kit, fluorogenic substrate OOMR
# T1 sequence (P28845 whole entry): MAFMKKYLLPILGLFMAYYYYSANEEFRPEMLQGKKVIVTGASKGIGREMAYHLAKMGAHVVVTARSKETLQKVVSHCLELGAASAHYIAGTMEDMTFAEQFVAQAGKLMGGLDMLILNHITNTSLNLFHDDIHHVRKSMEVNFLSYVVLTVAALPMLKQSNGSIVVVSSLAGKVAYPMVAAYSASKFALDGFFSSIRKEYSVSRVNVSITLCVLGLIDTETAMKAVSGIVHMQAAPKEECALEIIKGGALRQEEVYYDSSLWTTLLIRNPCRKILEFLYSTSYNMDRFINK
smiles,measurement,setting,value
"C[C@@H](c1ccc(-c2ccn(CC(C)(C)CO)c(=O)c2)cc1)N1CC[C@](CC(C)(C)O)(c2ccccc2)OC1=O [Example 90, 3-((S)-1-{4-[1-(3-Hydroxy-2,2-dimethyl-propyl)-2-oxo-1,2-dihydro-pyridin-4-yl]-phenyl}-ethyl)-(S)-6-(2-hydroxy-2-methyl-propyl)-6-phenyl-[1,3]oxazinan-2-one]",inhibition at 0.1 µM,11β-HSD1 [1],4%
"C[C@@H](c1ccc(-c2ccn(C3CC3)c(=O)c2)cc1)N1CCC(CC(C)(C)C)(CC(C)(C)O)OC1=O (single isomer, unassigned; isomer 1) [94 Isomer 1]",IC50,11β-HSD1 [2]; [6],> 0.1 µM
"CCn1cc(-c2ccc([C@H](C)N3CC[C@](CCCO)(c4ccccc4)OC3=O)cc2)ccc1=O [Example 43, (R)-3-((S)-1-(4-(1-ethyl-6-oxo-1,6-dihydropyridin-3-yl)phenyl)ethyl)-6-(3-hydroxypropyl)-6-phenyl-1,3-oxazinan-2-one]",IC50,CYP2C9,10.5 µM
"C[C@@H](c1ccc(-c2ccn(C3CC3)c(=O)c2)cc1)N1CCC(CC(C)(C)C)(CC(C)(C)O)OC1=O (single isomer, unassigned) [Example 94 Isomer 2]",Biological Test Example 1 Average % inhibition at 100 nM,"11β-HSD1 [2]; listed as EXAMPLE 94 Isomer 2, 0.1 µM",8.2%
same,IC50,11β-HSD1 [2]; [7],> 0.1 µM
"C[C@@H](c1ccc(-c2ccn(C)c(=O)c2)cc1)N1CC[C@](CCCO)(c2ccccc2)OC1=O [Example 47, (R)-6-(3-hydroxypropyl)-3-((S)-1-(4-(1-methyl-2-oxo-1,2-dihydropyridin-4-yl)phenyl)ethyl)-6-phenyl-1,3-oxazinan-2-one]",IC50,CYP2C9; [8],12.1 µM
"C[C@@H](c1ccc(-c2ccc(=O)[nH]c2)cc1)N1CC[C@](CC(C)(C)O)(c2ccccc2)OC1=O [Example 1, (S)-6-(2-hydroxy-2-methytpropyl)-3-((S)-1-(4-(6-oxo-1,6-dihydropyridin-3-yl)phenyl)ethyl)-6-phenyl-1,3-oxazinan-2-one]",IC50,"CYP2C9; read-out: Biological Test Example 9 CYP2C9 IC50, comparator compounds, Invitrogen kit, fluorogenic substrate OOMR",27 µM
"C[C@@H](c1ccc(-c2ccc(=O)n(C)c2)cc1)N1CC[C@](CC(C)(C)O)(c2ccc(F)cc2)OC1=O [Example 32, (S)-6-(4-fluorophenyl)-6-(2-hydroxy-2-methylpropyl)3-((S)-1-(4-(1-methyl-6-oxo-1,6-dihydropyridin-3-yl)phenyl)ethyl)-1,3-oxazinan-2-one]",Biological Test Example 5 (%),Plasma protein; Examples,12.3%
same,IC50,CYP2C9; [8],28.7 µM
"C[C@@H](c1ccc(-c2ccc(=O)n(C)c2)cc1)N1CC[C@](CC(C)(C)O)(c2ccccc2)OC1=O [Example 37, (S)-6-(2-hydroxy-2-methylpropyl)-3-((S)-1-(4-(1-methyl-6-oxo-1,6-dihydropyridin-3-yl)phenyl)ethyl)-6-phenyl-1,3-oxazinan-2-one]",Biological Test Example 5 (%),Plasma protein; Examples,14.6%
same,IC50,[3],43 µM
same,IC50,CYP2C9,24.8 µM
same,IC50,[4],48 µM
"C[C@@H](c1ccc(-c2ccn(C3CC3)c(=O)c2)cc1)N1CCC(CC(C)(C)O)(C2CC(F)(F)C2)OC1=O (single isomer, unassigned) [Example 95 Isomer 2]",Biological Test Example 1 Average % inhibition at 100 nM,11β-HSD1 [2]; 0.1 µM,8.0%
same,IC50,11β-HSD1 [2]; [7],> 0.1 µM
"C[C@@H](c1ccc(-c2ccc(=O)n(C)c2)cc1)N1CC[C@](CC(C)(C)N(C)S(C)(=O)=O)(c2ccccc2)OC1=O [Example 12, N-methyl-N-(2-methyl-1-((S)-3-((S)-1-(4-(1-methyl-6-oxo-1,6-dihydropyridin-3-yl)phenyl)ethyl)-2-oxo-6-phenyl-1,3-oxazinan-6-yl)propan-2-yl)methanesulfonamide]",Biological Test Example 5 (%),Plasma protein; Comparator Compounds,0.4%
same,IC50,CYP2C9; [8],12.1 µM
"C[C@@H](c1ccc(-c2ccc(=O)[nH]c2)cc1)N1CC[C@](CCCO)(c2ccccc2)OC1=O [Example 29, (R)-6-(3-hydroxypropyl)-3-((S)-1-(4-(6-oxo-1,6-dihydropyridin-3-yl)phenyl)ethyl)-6-phenyl-1,3-oxazinan-2-one]",IC50,CYP2C9; [8],7.5 µM
"CC[C@@H](c1ccc(-c2ccn(C)c(=O)c2)cc1)N1CC[C@](CC(C)(C)O)(c2ccccc2)OC1=O [Example 55, (S)-6-(2-hydroxy-2-methylpropyl)-3-((S)-1-(4-(1-methyl-2-oxo-1,2-dihydropyridin-4-yl)phenyl)propyl)-6-phenyl-1,3-oxazinan-2-one]",IC50,[5],13 µM
same,Biological Test Example 5 (%),Plasma protein; Examples,7.1%
same,IC50,[3],29 µM
same,IC50,CYP2C9,24.3 µM
same,IC50,[4],> 50 µM
"C[C@@H](c1ccc(-c2ccn(C)c(=O)c2)cc1)N1CC[C@](CC(C)(C)C#N)(c2ccccc2)OC1=O [Example 50, 2,2-dimethyl-3-((R)-3-((S)-1-(4-(1-methyl-2-oxo-1,2-dihydropyridin-4-yl)phenyl)ethyl)-2-oxo-6-phenyl-1,3-oxazinan-6-yl)propanenitrile]",IC50,[5],27 µM
same,IC50,[3],11 µM
same,IC50,CYP2C9,5.1 µM
same,IC50,[4],14 µM
"C[C@@H](c1ccc(-c2cc(=O)n(C)cc2F)cc1)N1CC[C@](CC(C)(C)O)(c2ccccc2)OC1=O [Example 79, 3-{(S)-1-[4-(5-Fluoro-1-methyl-2-oxo-1,2-dihydro-pyridin-4-yl)-phenyl]-ethyl}-(S)-6-(2-hydroxy-2-methyl-propyl)-6-phenyl-[1,3]oxazinan-2-one]",inhibition at 0.1 µM,11β-HSD1 [1],15%
"C[C@@H](c1ccc(-c2ccc(=O)n(CC3CC3)c2)cc1)N1CC[C@](CC(C)(C)O)(c2ccccc2)OC1=O [Example 76, 3-{(S)1-[4-(1-Cyclopropylmethyl-6-oxo-1,6-dihydro-pyridin-3-yl)-phenyl]-ethyt}-(S)-6-(2-hydroxy-2-methyl-propyl)-6-phenyl-[1,3]oxazinan-2-one]",inhibition at 0.1 µM,11β-HSD1 [1],17%
same,IC50,[5],9 µM
same,IC50,[3],4 µM
same,IC50,[4],10 µM
"C[C@@H](c1ccc(-c2ccn(C3CC3)c(=O)c2)cc1)N1CCC(CC(C)(C)O)(C2CCOCC2)OC1=O (single isomer, unassigned) [Example 91 Isomer 2]",Biological Test Example 1 Average % inhibition at 100 nM,11β-HSD1 [2]; 0.1 µM,13.8%
same,IC50,11β-HSD1 [2]; [7],> 0.1 µM
Cc1cc(-c2ccn(C3CC3)c(=O)c2)cc(C)c1CN1CCC(CC(C)(C)O)(c2ccccc2)OC1=O (stereo not drawn) [Example 98],inhibition at 0.1 µM,11β-HSD1 [1],67%
"C[C@@H](c1ccc(-c2ccn(C3CC3)c(=O)c2)cc1)N1CCC(CC(C)(C)O)(C2CCOCC2)OC1=O (single isomer, unassigned; isomer 1) [91 Isomer 1]",IC50,11β-HSD1 [2]; [6],> 0.1 µM
"C[C@@H](c1ccc(-c2ccc(=O)n(C)c2)cc1)N1CC[C@](CC(C)(C)C#N)(c2ccccc2)OC1=O [Example 49, 2,2-dimethyl-3-((R)-3-((S)-1-(4-(1-methyl-6-oxo-1,6-dihydropyridin-3-yl)phenyl)ethyl)-2-oxo-6-phenyl-1,3-oxazinan-6-yl)propanenitrile]",IC50,[5],46 µM
same,IC50,[3],29 µM
same,IC50,CYP2C9; [8],14.8 µM
same,IC50,[4],32 µM
"C[C@@H](c1ccc(-c2ccn(CC(C)(C)O)c(=O)c2)cc1)N1CC[C@](CC(C)(C)O)(c2ccccc2)OC1=O [Example 80, (S)-6-(2-Hydroxy-2-methyl-propyl)-3-((S)-1-{4-[1-(2-hydroxy-2-methylpropyl)-2-oxo-1,2-dihydro-pyridin-4-yl]-phenyl}-ethyl)-6-phenyl-[1,3]oxazinan-2-one]",inhibition at 0.1 µM,11β-HSD1 [1],37%
same,IC50,[5],38 µM
"C[C@@H](c1ccc(-c2ccn(C3CC3)c(=O)c2)cc1)N1CCC(CC(C)(C)O)(C2CC(F)(F)C2)OC1=O (single isomer, unassigned; isomer 1) [95 Isomer 1]",IC50,11β-HSD1 [2]; [6],> 0.1 µM
"CC[C@@H](c1ccc(-c2ccc(=O)n(C)c2)cc1)N1CC[C@](CCO)(c2ccccc2)OC1=O [Example 40, (S)-6-(2-hydroxyethyl)-3-((S)-1-(4-(1-methyl-6-oxo-1,6-dihydropyridin-3-yl)phenyl)propyl)-6-phenyl-1,3-oxazinan-2-one]",IC50,[5],13 µM
same,IC50,CYP2C9,27.9 µM
"C[C@@H](c1ccc(-c2ccn(C3CC3)c(=O)c2)cc1)N1CCC(CC(C)(C)O)(C2CCOCC2)OC1=O (single isomer, unassigned; isomer 2) [91 Isomer 2]",IC50,11β-HSD1 [2]; [6],> 0.1 µM
"C[C@@H](c1ccc(-c2ccn(C3CC3)c(=O)c2)cc1)N1CC[C@](CC(C)(C)O)(c2ccccc2)OC1=O [Example 75, 3-{(S)-1-[4-(1-Cyclopropyl-2-oxo-1,2-dihydro-pyridin-4-yl)-phenyl]-ethyl}-(S)-6-(2-hydroxy-2-methyl-propyl)-6-phenyl-[1,3]oxazinan-2-one]",IC50,[5],24 µM
same,Biological Test Example 5 (%),Plasma protein; Examples,15.6%
same,IC50,[3],19 µM
same,IC50,[4],23 µM
"C[C@@H](c1ccc(-c2ccc(=O)n(C)c2)cc1)N1CC[C@](CCCO)(c2ccc(F)cc2)OC1=O [Example 33, (R)-6-(4-fluorophenyl)-6-(3-hydroxypropyl)-3-((S)-1-(4-(1-methyl-6-oxo-1,6-dihydropyridin-3-yl)phenyl)ethyl)-1,3-oxazinan-2-one]",IC50,[5],17 µM
same,IC50,[3],43 µM
same,IC50,CYP2C9; [8],24.6 µM
same,IC50,[4],> 50 µM
